Data from ChEMBL document CHEMBL5465560, “Selectivity Literature for EUbOPEN Chemogenomic Library” (2024).

Columns and labels:
[1] = molecular target: Dual specificity protein kinase CLK3 (Homo sapiens, UniProt P49761); test: Selectivity interaction (Kinase panel (DSF assay)) EUB0001558a CLK3
[2] = molecular target: Mitogen-activated protein kinase 14 (Homo sapiens, UniProt Q16539); test: Selectivity interaction (ActivX KiNativ screen (kinase selectivity in THP-1 cell lysates)) EUB0000639a MAPK14; type: subcellular; conditions: lysate, at 0.04 µM
[3] = molecular target: T1, cAMP-dependent protein kinase catalytic subunit PRKX (Homo sapiens) (UniProt P51817); conditions: at 10 µM
T1 sequence (whole entry): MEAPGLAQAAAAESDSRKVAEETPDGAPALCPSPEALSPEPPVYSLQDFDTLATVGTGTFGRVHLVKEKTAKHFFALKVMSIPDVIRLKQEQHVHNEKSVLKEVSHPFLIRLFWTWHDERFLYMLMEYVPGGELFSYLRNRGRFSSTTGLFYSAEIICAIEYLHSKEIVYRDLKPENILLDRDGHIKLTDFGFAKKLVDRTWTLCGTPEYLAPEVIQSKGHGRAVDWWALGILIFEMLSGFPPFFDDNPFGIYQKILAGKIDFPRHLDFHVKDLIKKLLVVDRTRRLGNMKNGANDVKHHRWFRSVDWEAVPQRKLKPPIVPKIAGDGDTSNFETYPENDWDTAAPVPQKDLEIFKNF

[4] = molecular target: Tyrosine-protein kinase JAK1 (Homo sapiens, UniProt P23458); test: Selectivity interaction (Antiproliferative activity against Tel-kinase transformed Ba/F3 cell line) EUB0000045b JAK1; type: cell-based; conditions: BaF3
[5] = molecular target: Serine/threonine-protein kinase PLK3 (Homo sapiens, UniProt Q9H4B4); conditions: at 10 µM
[6] = molecular target: Receptor-type tyrosine-protein kinase FLT3 (Homo sapiens) (UniProt P36888); conditions: at 10 µM
[7] = molecular target: Mitogen-activated protein kinase kinase kinase kinase 5 (Homo sapiens) (UniProt Q9Y4K4); test: Selectivity interaction (ActivX KiNativ screen (ex vivo kinase selectivity in human PBMCs)) EUB0001619a MAP4K5; type: cell-based; conditions: PBMC, at 1 µM
[8] = molecular target: Ribosomal protein S6 kinase alpha-2 (Homo sapiens) (UniProt Q15349); test: Selectivity interaction (ActivX KiNativ screen (ex vivo kinase selectivity in human PBMCs)) EUB0001619a RPS6KA2; type: cell-based; conditions: PBMC, at 1 µM
[9] = molecular target: Tyrosine-protein kinase FRK (Homo sapiens) (UniProt P42685); test: Selectivity interaction (KinomeScan (DiscoverX)) EUB0000655a FRK; conditions: at 10 µM
[10] = molecular target: T2, Serine/threonine-protein kinase Nek5 (Homo sapiens) (UniProt Q6P3R8); test: Selectivity interaction (KinomeScan (DiscoverX)) EUB0000655a NEK5; conditions: at 10 µM
T2 sequence (whole entry): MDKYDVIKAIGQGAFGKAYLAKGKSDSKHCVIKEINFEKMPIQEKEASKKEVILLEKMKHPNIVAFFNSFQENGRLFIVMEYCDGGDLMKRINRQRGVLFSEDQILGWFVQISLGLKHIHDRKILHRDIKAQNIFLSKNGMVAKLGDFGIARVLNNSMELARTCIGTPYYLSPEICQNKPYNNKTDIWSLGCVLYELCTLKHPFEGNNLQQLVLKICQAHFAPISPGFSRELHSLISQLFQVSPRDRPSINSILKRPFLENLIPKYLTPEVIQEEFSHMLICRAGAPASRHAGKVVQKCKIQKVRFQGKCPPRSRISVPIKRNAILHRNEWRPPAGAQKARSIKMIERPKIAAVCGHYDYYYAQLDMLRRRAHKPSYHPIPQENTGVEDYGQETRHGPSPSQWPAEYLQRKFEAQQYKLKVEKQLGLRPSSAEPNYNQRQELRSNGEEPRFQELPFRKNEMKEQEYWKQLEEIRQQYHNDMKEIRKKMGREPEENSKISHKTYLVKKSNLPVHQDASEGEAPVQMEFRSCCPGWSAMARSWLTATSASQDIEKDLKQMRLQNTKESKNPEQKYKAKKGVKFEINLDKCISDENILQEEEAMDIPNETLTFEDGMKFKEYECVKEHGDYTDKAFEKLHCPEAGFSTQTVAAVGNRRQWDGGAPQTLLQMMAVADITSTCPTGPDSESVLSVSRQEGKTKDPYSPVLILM

[11] = molecular target: Receptor-interacting serine/threonine-protein kinase 2 (Homo sapiens, UniProt O43353); test: Selectivity interaction (KinomeScan (DiscoverX)) EUB0000695a RIPK2; conditions: at 100 nM
Activated CDC42 kinase 1 = Activated CDC42 kinase 1 (Homo sapiens, UniProt Q07912); test: Selectivity interaction (KinomeScan (DiscoverX)) EUB0000607a TNK2; conditions: at 10 µM
[12] = molecular target: Mitogen-activated protein kinase 9 (Homo sapiens, UniProt P45984); test: Selectivity interaction (LanthaScreen Eu Kinase Binding Assay) EUB0001632a MAPK9; conditions: at 10 µM
[13] = molecular target: Leucine-rich repeat serine/threonine-protein kinase 2 (Homo sapiens, UniProt Q5S007); test: Selectivity interaction (Enzymatic assay) EUB0001632a LRRK2
[14] = molecular target: T3, Mitogen-activated protein kinase kinase kinase 7 (Homo sapiens) (UniProt O43318); test: Selectivity interaction (ProQinase) EUB0000171b MAP3K7
T3 sequence (whole entry): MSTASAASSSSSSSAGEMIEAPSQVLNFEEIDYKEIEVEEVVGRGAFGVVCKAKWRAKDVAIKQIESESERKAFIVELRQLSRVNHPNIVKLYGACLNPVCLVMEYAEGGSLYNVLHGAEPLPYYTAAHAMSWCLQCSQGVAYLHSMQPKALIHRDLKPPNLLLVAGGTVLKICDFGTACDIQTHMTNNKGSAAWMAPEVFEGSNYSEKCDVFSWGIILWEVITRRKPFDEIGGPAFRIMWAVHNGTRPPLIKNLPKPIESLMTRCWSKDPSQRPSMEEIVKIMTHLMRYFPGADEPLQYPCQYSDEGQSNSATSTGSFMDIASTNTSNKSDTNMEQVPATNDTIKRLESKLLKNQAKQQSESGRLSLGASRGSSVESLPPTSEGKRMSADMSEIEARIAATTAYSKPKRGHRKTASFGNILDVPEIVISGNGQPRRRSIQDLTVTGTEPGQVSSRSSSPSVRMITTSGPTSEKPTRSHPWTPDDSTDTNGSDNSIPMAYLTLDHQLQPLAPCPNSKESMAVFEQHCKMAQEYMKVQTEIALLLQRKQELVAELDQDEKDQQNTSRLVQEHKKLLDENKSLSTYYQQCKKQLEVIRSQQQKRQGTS

Sequence of Mitogen-activated protein kinase kinase kinase kinase 5 (Homo sapiens) (Q9Y4K4 whole entry, looked up): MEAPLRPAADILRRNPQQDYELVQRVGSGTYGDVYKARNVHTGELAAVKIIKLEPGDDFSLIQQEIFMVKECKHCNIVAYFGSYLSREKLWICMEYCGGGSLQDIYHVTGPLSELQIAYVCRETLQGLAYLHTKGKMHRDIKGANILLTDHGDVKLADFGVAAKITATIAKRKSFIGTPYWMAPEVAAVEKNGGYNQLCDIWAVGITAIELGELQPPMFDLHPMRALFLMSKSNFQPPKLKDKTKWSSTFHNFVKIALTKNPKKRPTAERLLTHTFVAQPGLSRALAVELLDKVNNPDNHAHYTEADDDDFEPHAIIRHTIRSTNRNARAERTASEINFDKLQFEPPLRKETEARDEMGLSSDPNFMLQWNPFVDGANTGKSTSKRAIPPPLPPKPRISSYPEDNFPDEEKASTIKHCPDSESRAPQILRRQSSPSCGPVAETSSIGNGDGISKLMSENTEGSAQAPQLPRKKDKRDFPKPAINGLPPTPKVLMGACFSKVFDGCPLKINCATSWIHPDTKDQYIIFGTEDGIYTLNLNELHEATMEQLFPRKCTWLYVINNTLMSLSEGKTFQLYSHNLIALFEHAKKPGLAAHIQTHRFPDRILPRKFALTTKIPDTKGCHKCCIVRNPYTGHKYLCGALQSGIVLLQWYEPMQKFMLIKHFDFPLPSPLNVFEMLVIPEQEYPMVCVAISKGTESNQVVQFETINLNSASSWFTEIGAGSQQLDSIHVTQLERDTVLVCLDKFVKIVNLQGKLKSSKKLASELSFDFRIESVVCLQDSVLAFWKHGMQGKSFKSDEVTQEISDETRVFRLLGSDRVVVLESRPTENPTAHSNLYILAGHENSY
Sequence of Leucine-rich repeat serine/threonine-protein kinase 2 (Q5S007 whole entry): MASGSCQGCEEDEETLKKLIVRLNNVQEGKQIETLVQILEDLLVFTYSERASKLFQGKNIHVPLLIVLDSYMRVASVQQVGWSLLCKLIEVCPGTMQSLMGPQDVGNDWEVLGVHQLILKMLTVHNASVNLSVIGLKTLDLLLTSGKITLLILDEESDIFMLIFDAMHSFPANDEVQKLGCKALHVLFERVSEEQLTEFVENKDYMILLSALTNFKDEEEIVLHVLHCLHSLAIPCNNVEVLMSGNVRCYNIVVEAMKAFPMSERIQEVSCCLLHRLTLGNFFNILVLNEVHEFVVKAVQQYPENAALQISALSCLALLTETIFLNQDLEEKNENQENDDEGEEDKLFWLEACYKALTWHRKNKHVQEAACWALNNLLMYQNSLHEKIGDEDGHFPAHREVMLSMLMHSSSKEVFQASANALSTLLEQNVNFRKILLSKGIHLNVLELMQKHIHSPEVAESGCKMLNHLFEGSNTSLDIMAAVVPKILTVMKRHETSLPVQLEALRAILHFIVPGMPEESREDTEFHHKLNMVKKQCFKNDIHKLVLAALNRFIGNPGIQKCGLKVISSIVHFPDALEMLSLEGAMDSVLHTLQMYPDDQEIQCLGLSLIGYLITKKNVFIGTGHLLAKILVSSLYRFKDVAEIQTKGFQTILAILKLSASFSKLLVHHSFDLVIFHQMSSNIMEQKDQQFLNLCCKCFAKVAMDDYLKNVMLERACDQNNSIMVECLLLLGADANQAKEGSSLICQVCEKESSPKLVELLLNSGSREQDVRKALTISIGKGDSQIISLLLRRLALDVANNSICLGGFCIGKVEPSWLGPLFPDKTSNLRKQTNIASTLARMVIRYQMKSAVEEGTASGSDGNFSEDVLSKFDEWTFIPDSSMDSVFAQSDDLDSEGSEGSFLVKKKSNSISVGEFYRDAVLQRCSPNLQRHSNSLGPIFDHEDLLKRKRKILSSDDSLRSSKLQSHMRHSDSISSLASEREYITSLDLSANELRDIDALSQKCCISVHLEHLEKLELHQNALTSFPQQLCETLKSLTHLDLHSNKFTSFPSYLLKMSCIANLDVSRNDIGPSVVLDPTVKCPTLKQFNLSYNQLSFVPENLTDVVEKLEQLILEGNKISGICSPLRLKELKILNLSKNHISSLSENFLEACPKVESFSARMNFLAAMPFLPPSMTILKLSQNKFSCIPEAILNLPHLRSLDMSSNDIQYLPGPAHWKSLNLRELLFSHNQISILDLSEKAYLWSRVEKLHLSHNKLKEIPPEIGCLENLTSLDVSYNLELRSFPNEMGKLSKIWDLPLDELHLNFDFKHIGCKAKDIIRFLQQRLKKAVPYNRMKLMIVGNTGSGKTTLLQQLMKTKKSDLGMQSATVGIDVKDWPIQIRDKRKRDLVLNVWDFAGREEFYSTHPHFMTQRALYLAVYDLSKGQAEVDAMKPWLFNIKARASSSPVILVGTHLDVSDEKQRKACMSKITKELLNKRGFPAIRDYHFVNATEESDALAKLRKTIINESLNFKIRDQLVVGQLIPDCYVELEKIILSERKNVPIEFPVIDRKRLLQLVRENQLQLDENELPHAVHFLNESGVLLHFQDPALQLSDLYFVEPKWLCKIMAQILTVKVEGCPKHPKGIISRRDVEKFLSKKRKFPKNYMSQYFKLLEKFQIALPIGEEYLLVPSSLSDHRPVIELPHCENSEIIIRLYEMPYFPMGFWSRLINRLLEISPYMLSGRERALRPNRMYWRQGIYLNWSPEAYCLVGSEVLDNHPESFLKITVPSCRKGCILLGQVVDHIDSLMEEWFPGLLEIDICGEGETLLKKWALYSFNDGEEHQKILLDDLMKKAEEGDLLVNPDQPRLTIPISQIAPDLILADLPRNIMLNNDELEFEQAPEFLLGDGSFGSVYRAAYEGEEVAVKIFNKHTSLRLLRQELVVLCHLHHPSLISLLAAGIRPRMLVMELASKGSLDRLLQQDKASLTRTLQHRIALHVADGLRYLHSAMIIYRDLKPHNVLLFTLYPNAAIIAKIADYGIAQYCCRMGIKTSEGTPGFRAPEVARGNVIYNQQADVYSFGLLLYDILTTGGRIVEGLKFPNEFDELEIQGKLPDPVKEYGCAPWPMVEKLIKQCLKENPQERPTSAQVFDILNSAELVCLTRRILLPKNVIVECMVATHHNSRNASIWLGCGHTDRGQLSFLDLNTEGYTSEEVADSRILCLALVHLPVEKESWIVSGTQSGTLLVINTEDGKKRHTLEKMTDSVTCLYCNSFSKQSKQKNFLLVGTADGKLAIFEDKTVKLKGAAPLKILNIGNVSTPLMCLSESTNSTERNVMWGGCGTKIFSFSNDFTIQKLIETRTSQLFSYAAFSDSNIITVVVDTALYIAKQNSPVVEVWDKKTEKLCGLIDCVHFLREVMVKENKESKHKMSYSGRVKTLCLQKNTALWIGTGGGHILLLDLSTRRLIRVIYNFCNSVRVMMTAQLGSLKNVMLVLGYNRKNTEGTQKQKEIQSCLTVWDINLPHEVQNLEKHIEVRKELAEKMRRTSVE
Sequence of Serine/threonine-protein kinase PLK3 (Q9H4B4 whole entry, looked up): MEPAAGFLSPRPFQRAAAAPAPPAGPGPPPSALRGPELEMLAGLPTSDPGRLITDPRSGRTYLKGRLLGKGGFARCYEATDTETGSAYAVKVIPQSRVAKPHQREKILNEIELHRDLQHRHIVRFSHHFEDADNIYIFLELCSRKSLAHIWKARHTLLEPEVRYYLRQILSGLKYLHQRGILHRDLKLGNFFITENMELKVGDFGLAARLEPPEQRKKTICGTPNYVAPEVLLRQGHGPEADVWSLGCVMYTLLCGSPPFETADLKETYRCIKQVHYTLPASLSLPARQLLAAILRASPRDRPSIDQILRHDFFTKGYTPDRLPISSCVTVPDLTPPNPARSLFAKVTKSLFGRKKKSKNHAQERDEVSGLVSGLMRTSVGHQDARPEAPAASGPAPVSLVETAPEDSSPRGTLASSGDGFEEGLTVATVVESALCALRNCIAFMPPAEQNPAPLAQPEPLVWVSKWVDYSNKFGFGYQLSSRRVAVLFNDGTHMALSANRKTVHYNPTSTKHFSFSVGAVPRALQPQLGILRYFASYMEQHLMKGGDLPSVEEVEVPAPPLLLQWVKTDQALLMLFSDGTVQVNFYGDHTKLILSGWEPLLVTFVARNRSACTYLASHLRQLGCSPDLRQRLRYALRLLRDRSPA
Sequence of Receptor-type tyrosine-protein kinase FLT3 (Homo sapiens) (P36888 whole entry): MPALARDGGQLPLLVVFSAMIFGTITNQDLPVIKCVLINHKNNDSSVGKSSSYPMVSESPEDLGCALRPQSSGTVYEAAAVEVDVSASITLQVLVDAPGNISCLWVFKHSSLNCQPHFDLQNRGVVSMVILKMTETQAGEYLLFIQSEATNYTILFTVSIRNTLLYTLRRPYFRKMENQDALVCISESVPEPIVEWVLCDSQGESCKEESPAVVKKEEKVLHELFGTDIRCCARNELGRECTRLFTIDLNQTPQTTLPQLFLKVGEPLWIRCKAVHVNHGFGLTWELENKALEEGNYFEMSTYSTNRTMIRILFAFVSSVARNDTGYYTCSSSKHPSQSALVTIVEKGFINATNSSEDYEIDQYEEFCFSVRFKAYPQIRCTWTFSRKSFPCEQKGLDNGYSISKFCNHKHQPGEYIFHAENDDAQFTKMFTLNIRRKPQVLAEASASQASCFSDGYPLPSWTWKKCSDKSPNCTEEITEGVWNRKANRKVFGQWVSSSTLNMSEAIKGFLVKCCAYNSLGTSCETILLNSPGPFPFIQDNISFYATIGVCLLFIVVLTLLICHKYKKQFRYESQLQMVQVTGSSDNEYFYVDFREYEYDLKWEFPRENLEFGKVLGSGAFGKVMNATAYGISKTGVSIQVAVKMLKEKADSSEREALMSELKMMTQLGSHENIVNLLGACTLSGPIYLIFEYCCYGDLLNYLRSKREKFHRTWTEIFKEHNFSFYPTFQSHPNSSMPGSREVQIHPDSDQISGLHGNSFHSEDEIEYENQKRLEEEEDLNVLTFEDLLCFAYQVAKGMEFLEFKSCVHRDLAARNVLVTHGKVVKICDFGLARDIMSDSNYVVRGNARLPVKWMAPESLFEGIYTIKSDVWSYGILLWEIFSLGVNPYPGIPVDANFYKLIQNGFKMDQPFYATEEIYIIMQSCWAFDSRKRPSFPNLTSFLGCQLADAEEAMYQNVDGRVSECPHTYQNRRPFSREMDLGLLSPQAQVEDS

Structure (SMILES): CC(C)(O)[C@H](F)CN1Cc2cc(NC(=O)c3cnn4cccnc34)c(N3CCOCC3)cc2C1=O
- dTM [1]: 1.3 K

Structure (SMILES): CC[C@@H]1[C@H](F)C(=O)N[C@@H]1COc1nccc2cc(C(N)=O)c(OC)cc12 [ZIMLOVISERTIB]
- % of inhibition [2]: 5.4%

Structure (SMILES): COCC(=O)NC/C=C/c1ccc2ncnc(Nc3ccc(Oc4ccc(C)nc4)c(C)c3)c2c1 [CP-724714]
- % of control [3]: 100%

Structure (SMILES): C=CC(=O)Nc1cc(-n2c(=O)ccc3cnc4ccc(-c5ccc(NS(C)(=O)=O)cc5)cc4c32)ccc1C
- GIC50 [4]: 4.92 µM

Structure (SMILES): Cc1cc([C@@H](C)Nc2ccccc2C(=O)O)c2nc(N3CCOCC3)cc(=O)n2c1 [AZD-6482]
- % of control [5]: 89%
- % of control [6]: 13%

Structure (SMILES): N#Cc1cccc(-c2c[nH]c3ncnc(N4CCOCC4)c23)c1
- % of inhibition [7]: 16%
- % of inhibition [8]: 13%

Structure (SMILES): CN(C)CCOc1ccc(-c2nc(-c3ccncc3)c(-c3ccc4c(c3)CC/C4=N\O)[nH]2)cc1
- % of control [9]: 96%
- % of control [10]: 74%

Structure (SMILES): Cc1cc(F)c(C(=O)Nc2cccc(-c3nncn3C(C)C)n2)cc1-n1cnc(C2CC2)c1
- % of control [11]: 100%

Structure (SMILES): CNC(=O)Nc1ccc(-c2nc(N3CC4CCC(C3)O4)c3cnn(C4CCC5(CC4)OCCO5)c3n2)cc1
- % of control (Activated CDC42 kinase 1): 84%

Structure (SMILES): Cn1cc(-n2cnc3c(NCc4nc5cc(Cl)c(Cl)cc5[nH]4)nc(N4CCOCC4)nc32)cn1
- % of inhibition [12]: -21.2%
- IC50 [13]: > 10 µM

Structure (SMILES): C=CC(=O)Nc1cccc(C(=O)Nc2ccc(Nc3cc(-c4[nH]c(SC)nc4C)ccn3)cc2)c1
- % of control ([14]; at 1 µM): 101%
- % of control ([14]; at 5 µM): 77%
